# Test system: Plasmodium berghei
# Experiment: Luciferase/luciferin-expressing antifolate-resistant parasites were used to infect a culture of HepG2 cells that were pre-incubated with compounds. Infected hepatocytes emit light due to the luciferase reaction. Assay results are presented as the percent inhibition of light emission compared to control. […]
# Assay type: functional
# Settings: sporozoite; for IC90: read-out: LUCIFERASE INFECTION ASSAY - IC90
# [1] = read-out: LUCIFERASE INFECTION ASSAY - IC50
SMILES,IC90 [µM],IC50 [1] [µM],also measured
C=CCNC(=O)NC(=O)COC(=O)c1c2c(nc3ccccc13)/C(=C/c1cccs1)CCC2,> 10,–,"IC50 (PBLUC_HILL_SLOPE 2.17, PBLUC_R_SQUARED 0.466, read-out: LUCIFERASE INFECTION ASSAY - IC50): 7.2 µM"
Cc1ccc2nc(NC(=O)c3cccc(F)c3)c(C(=O)NCC(C)C)n2c1,3.14,–,"IC50 (FFLUC_HILL_SLOPE 3.07, FFLUC_R_SQUARED 0.833, HEPG2TOX_HILL_SLOPE 1.43, HEPG2TOX_R_SQUARED 0.94, PBLUC_HILL_SLOPE 3.56, PBLUC_R_SQUARED 0.485, read-out: LUCIFERASE INFECTION ASSAY - IC50): 1.69 µM"
C=CCN(C(=O)c1cccc(S(=O)(=O)N2CCCC2)c1)c1nc2c(s1)CCCC2,8.77,–,"IC50 (HEPG2TOX_HILL_SLOPE 2.26, HEPG2TOX_R_SQUARED 0.795, PBLUC_HILL_SLOPE 11.6, 3.98, PBLUC_R_SQUARED 0.244, 0.586, read-out: LUCIFERASE INFECTION ASSAY - IC50): 7.23 µM"
CCOc1ccccc1NC(=O)COC(=O)c1cc(S(=O)(=O)Nc2cccc(C)c2)ccc1C,> 10,> 10,–
C=C(C)CC(NCc1ccco1)c1ccc(OC)cc1 (configuration not stated),> 12.2,8.94,–
Cc1ccc2nc(NC(=O)c3ccc(F)cc3)c(C(=O)NC3CCCCC3)n2c1,4.51,–,"IC50 (HEPG2TOX_HILL_SLOPE 8.64, HEPG2TOX_R_SQUARED 0.539, PBLUC_HILL_SLOPE 8.68, PBLUC_R_SQUARED 0.013, read-out: LUCIFERASE INFECTION ASSAY - IC50): 3.5 µM"
C[C@H](NC(=O)c1sc2ccccc2c1Cl)c1nnc2ccccn12,> 9.25,> 9.25,–
Clc1ccc(-c2nnc(-c3cc(Cl)cc(Cl)c3)o2)cc1,> 10.1,> 10.1,–
Cc1nn(-c2ccccc2)c2nc(-c3cccs3)cc(C(=O)OC(C)C(=O)N3CCCc4ccccc43)c12 (configuration not stated),> 10,–,"IC50 (FFLUC_HILL_SLOPE 2.63, FFLUC_R_SQUARED 0.683, PBLUC_HILL_SLOPE 9.18, PBLUC_R_SQUARED 0.333, read-out: LUCIFERASE INFECTION ASSAY - IC50): 8.32 µM"
COc1ccc(O)c(C(=O)NNC(=O)C23CC4CC(CC(C4)C2)C3)c1,> 10,–,"IC50 (PBLUC_HILL_SLOPE 14.2, PBLUC_R_SQUARED 0.249, read-out: LUCIFERASE INFECTION ASSAY - IC50): 8.74 µM"
COc1ccc(C(CNC(=O)c2cc3c(C)nn(-c4ccc(Cl)cc4)c3s2)N(C)C)cc1 (configuration not stated),4.14,–,"IC50 (PBLUC_HILL_SLOPE 12.4, PBLUC_R_SQUARED 0.574, read-out: LUCIFERASE INFECTION ASSAY - IC50): 3.47 µM"
CCC(C)(C)c1ccc(Oc2ccc(NC(=O)CSc3cccc[n+]3[O-])cc2)cc1,> 10,> 10,–
CNc1ccc(CSc2ccc(C(F)(F)F)cn2)cc1C(F)(F)F,> 9.01,> 9.01,–
CC(C)n1ncc2c(C(=O)Nc3ccc(N4CCN(C)CC4)nc3)cc(-c3cccs3)nc21,8.59,–,"IC50 (HEPG2TOX_HILL_SLOPE 15.5, HEPG2TOX_R_SQUARED 0.177, PBLUC_HILL_SLOPE 20.4, 20.5, PBLUC_R_SQUARED 0.223, 0.421, read-out: LUCIFERASE INFECTION ASSAY - IC50): 7.71 µM"
CCc1cccc2c(/C=C3\C(=O)Nc4ccccc43)c[nH]c12,> 10,6.04,–
O=C(NC1CCCc2ccccc21)c1oc2ccccc2c1CSc1nccs1 (configuration not stated),> 10,6.48,–
O=C(CSc1ccc(S(=O)(=O)N2CCCCCC2)cn1)N1CCN(c2ccccc2F)CC1,> 10,–,"IC50 (HEPG2TOX_HILL_SLOPE 8.02, HEPG2TOX_R_SQUARED 0.252, PBLUC_HILL_SLOPE 16.3, 0.0846, PBLUC_R_SQUARED 0.285, 0.0684, read-out: LUCIFERASE INFECTION ASSAY - IC50): 9.76 µM"
O=C(c1ccc2cc[nH]c2c1)N1CCN(C/C=C/c2ccccc2)CC1,9.08,7.41,–
CC(c1nc(N)nc(N(C)C)n1)N(C)Cc1ccc(-c2ccc(Br)cc2)o1 (configuration not stated),> 10,> 10,–
Cn1ccc2cc(-c3cn4c(-c5cccc(O)c5)cnc4cn3)ccc21,3.11,–,"IC50 (HEPG2TOX_HILL_SLOPE 1.21, HEPG2TOX_R_SQUARED 0.948, PBLUC_HILL_SLOPE 1.63, PBLUC_R_SQUARED 0.761, read-out: LUCIFERASE INFECTION ASSAY - IC50): 0.805 µM"
COc1ccc(CCNC(=O)c2ccccc2NC(=O)c2cc(OC)c(OC)c(OC)c2)cc1OC,> 6.67,–,"IC50 (PBLUC_HILL_SLOPE 2.16, PBLUC_R_SQUARED 0.652, read-out: LUCIFERASE INFECTION ASSAY - IC50): 3.54 µM"
